US20050239656A1, “Pyridine compounds or salts thereof and herbicides containing the same” (priority 2002, published 2005)

How the values were obtained:
redroot pigweed [1] = experiment: Test Example 2: soil surface treatment, upland pot test; format: in vivo, Amaranthus retroflexus L.; settings: active ingredient 500 g/ha
Method in brief: (§1)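 Upland soil in pots of 1/170,000 ha is sown; on day 1 after sowing the formulated compound (wettable powder or emulsifiable concentrate, predetermined a.i. amount, water volume 1,500 L/ha) is applied to the soil surface with a small sprayer. Percent control is judged by eye 20–28 days later.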

barnyardgrass [2] = experiment: as above; format: in vivo, Echinochloa crus-galli L.; settings: active ingredient 500 g/ha
Method in brief: as §1

rice [3] = experiment: as above; format: in vivo, Oryza sativa L.; settings: active ingredient 500 g/ha
Method in brief: as §1

rice (var. Nihonbare) = experiment: Test Example 3: paddy pot test, transplanted rice; format: in vivo, Oryza sativa L.; settings: applied 4th day after transplantation, visually observed 21st day after application, 0 = non-treated, 100 = complete kill
Method in brief: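 Rice (var. Nihonbare) at 2 leaf stage transplanted 3 cm deep into puddled paddy soil under 3–4 cm flooding; on day 4 after transplanting, diluted wettable powder or emulsifiable concentrate applied by pipette under submerged conditions at a set active-ingredient dose. Growth scored visually 21 days after application, 0 (untreated) to 100 (complete kill) %.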

japanese bulrush = experiment: Test Example 3: paddy pot test, application under submerged conditions; format: in vivo, Scirpus juncoides; settings: submerged application at 0.5 leaf stage, visually observed 14 days after application, 0 = non-treated, 100 = complete kill
Method in brief: (§2)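 Barnyardgrass and japanese bulrush sown in flooded paddy soil in greenhouse pots, japanese ribbon wapato tubers planted 1–2 days later; water depth kept at 3–4 cm. Diluted wettable powder or emulsifiable concentrate applied into water at 0.5-leaf or primary-leaf stage at set active-ingredient doses. Growth control scored visually at 14 days, 0 (untreated) to 100% (complete kill).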

velvetleaf [4] = experiment: Test Example 1: foliage treatment, upland pot test; format: in vivo, Abutilon theophrasti MEDIC.; settings: active ingredient 500 g/ha, observed 18th to 23rd day, 0 = non-treated, 100 = complete kill
rice [5] = experiment: Test Example 1: foliage treatment, upland pot test; format: in vivo, Oryza sativa L.; settings: crop, active ingredient 500 g/ha, observed 18th to 23rd day, 0 = non-treated, 100 = complete kill
Method in brief: (§3)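 Upland pot test, foliar. Soybean 0.1–0.4 / wheat 1.3–2.4 / rice 1.2–2.6 / barnyardgrass 1.3–2.8 leaf stage at spraying; 500 L/ha carrier, 0.1% (v/v) spreader. Visual % control, 0 untreated to 100 dead, days 18–23.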

barnyardgrass [6] = experiment: Test Example 1: foliage treatment, upland pot test; format: in vivo, Echinochloa crus-galli L.; settings: active ingredient 500 g/ha, observed 18th to 23rd day, 0 = non-treated, 100 = complete kill
Method in brief: as §3

crabgrass [7] = experiment: Test Example 2: soil surface treatment, upland pot test; format: in vivo, Digitaria sanguinalis L.; settings: active ingredient 500 g/ha
Method in brief: as §1

redroot pigweed [8] = experiment: Test Example 1: foliage treatment, upland pot test; format: in vivo, Amaranthus retroflexus L.; settings: active ingredient 500 g/ha, observed 18th to 23rd day, 0 = non-treated, 100 = complete kill
prickly sida [9] = experiment: Test Example 1: foliage treatment, upland pot test; format: in vivo, Sida spinosa L.; settings: active ingredient 500 g/ha, observed 18th to 23rd day, 0 = non-treated, 100 = complete kill
soybean [10] = experiment: Test Example 2: soil surface treatment, upland pot test; format: in vivo, Glycine max Merr.; settings: active ingredient 500 g/ha
Method in brief: as §1

prickly sida [11] = experiment: as above; format: in vivo, Sida spinosa L.; settings: active ingredient 500 g/ha
Method in brief: as §1

corn [12] = experiment: Test Example 1: foliage treatment, upland pot test; format: in vivo, Zea mays L.; settings: crop, active ingredient 500 g/ha, observed 18th to 23rd day, 0 = non-treated, 100 = complete kill
Method in brief: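 Corn seeds were sown in upland field soil held in a 1/170,000 ha pot and grown to the 2.1 to 3.2 leaf stage. A wettable powder or emulsifiable concentrate of the test compound was diluted with water at 500 L/ha, given 0.1% (v/v) agricultural spreader, and sprayed onto the foliage with a small sprayer. Growth controlling degree (%) was scored visually 18th to 23rd days later, from 0 (non-treated) to 100 (complete kill).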

green foxtail [13] = experiment: Test Example 2: soil surface treatment, upland pot test; format: in vivo, Setaria viridis L.; settings: active ingredient 500 g/ha
Method in brief: as §1

corn [14] = experiment: as above; format: in vivo, Zea mays L.; settings: active ingredient 500 g/ha
Method in brief: as §1

green foxtail [15] = experiment: Test Example 1: foliage treatment, upland pot test; format: in vivo, Setaria viridis L.; settings: active ingredient 500 g/ha, observed 18th to 23rd day, 0 = non-treated, 100 = complete kill
japanese ribbon wapato = experiment: Test Example 3: paddy pot test, application under submerged conditions; format: in vivo, Sagittaria pygniaea; settings: submerged application at primary leaf stage, visually observed 14 days after application, 0 = non-treated, 100 = complete kill
Method in brief: as §2

soybean [16] = experiment: Test Example 1: foliage treatment, upland pot test; format: in vivo, Glycine max Merr.; settings: crop, active ingredient 500 g/ha, observed 18th to 23rd day, 0 = non-treated, 100 = complete kill
Method in brief: as §3

velvetleaf [17] = experiment: Test Example 2: soil surface treatment, upland pot test; format: in vivo, Abutilon theophrasti MEDIC.; settings: active ingredient 500 g/ha
Method in brief: as §1

crabgrass [18] = experiment: Test Example 1: foliage treatment, upland pot test; format: in vivo, Digitaria sanguinalis L.; settings: active ingredient 500 g/ha, observed 18th to 23rd day, 0 = non-treated, 100 = complete kill
barnyardgrass [19] = experiment: Test Example 3: paddy pot test, application under submerged conditions; format: in vivo, Echinochloa crus-galli L.; settings: submerged application at 0.5 leaf stage, visually observed 14 days after application, 0 = non-treated, 100 = complete kill
Method in brief: as §2

[20] = observed day 21, 0 = non-treated, 100 = complete kill

| SMILES | Growth controlling degree (%) Redroot pigweed (redroot pigweed [1]; observed 20th to 28th day) | Growth controlling degree (%) Barnyardgrass (barnyardgrass [2]; observed 20th to 28th day) | Growth controlling degree (%) Rice (rice [3]; observed 20th to 28th day) | Growth controlling degree (%) Rice (rice (var. Nihonbare); active ingredient 250 g/ha) | Growth controlling degree (%) Japanese bulrush (japanese bulrush; active ingredient 250 g/ha) | Growth controlling degree (%) Velvetleaf (velvetleaf [4]) | Growth controlling degree (%) Rice (rice [5]) | Growth controlling degree (%) Barnyardgrass (barnyardgrass [6]) | Growth controlling degree (%) Crabgrass (crabgrass [7]; observed 20th to 28th day) | Growth controlling degree (%) Redroot pigweed (redroot pigweed [8]) | Growth controlling degree (%) Prickly sida (prickly sida [9]) | Growth controlling degree (%) Soyabean (soybean [10]; observed 20th to 28th day) | Growth controlling degree (%) Prickly sida (prickly sida [11]; observed 20th to 28th day) | Growth controlling degree (%) Corn (corn [12]) | Growth controlling degree (%) Green foxtail (green foxtail [13]; observed 20th to 28th day) | Growth controlling degree (%) Corn (corn [14]; observed 20th to 28th day) | Growth controlling degree (%) Green foxtail (green foxtail [15]) | Growth controlling degree (%) Soybean (soybean [16]) | Growth controlling degree (%) Velvetleaf (velvetleaf [17]; observed 20th to 28th day) | Growth controlling degree (%) Crabgrass (crabgrass [18]) | further results |
| --- | --- | --- | --- | --- | --- | --- | --- | --- | --- | --- | --- | --- | --- | --- | --- | --- | --- | --- | --- | --- | --- |
| CC(C)C(c1cnccc1C(F)(F)F)N(C)C(=O)Cc1cccc(C(F)(F)F)c1 (stereo not drawn) [I-40] | 90% | 95% | 20% | 0% | 50% | 90% | 50% | 40% | 100% | 80% | 80% | 30% | 100% | 90% | 100% | 50% | 70% | 60% | 70% | 95% | Growth controlling degree (%) Japanese ribbon wapato (japanese ribbon wapato; active ingredient 250 g/ha): 50%; Growth controlling degree (%) Barnyardgrass (barnyardgrass [19]; active ingredient 250 g/ha): 100% |
| CC(C)C(c1cnccc1Cl)N(C)C(=O)Cc1ccc(F)cc1 (stereo not drawn) [I-67] | 40% | 90% | 10% |  |  | 60% | 10% | 50% | 95% | 60% | 80% | 10% | 80% | 0% | 95% | 40% | 70% | 50% | 60% | 90% | Growth controlling degree (%) Rice (rice (var. Nihonbare); active ingredient 125 g/ha): 0%; Growth controlling degree (%) Japanese bulrush (japanese bulrush; active ingredient 125 g/ha): 98%; Growth controlling degree (%) Japanese ribbon wapato (japanese ribbon wapato; active ingredient 125 g/ha): 60%; Growth controlling degree (%) Barnyardgrass (barnyardgrass [19]; active ingredient 125 g/ha): 100% |
| CC(C)C(c1cnccc1C(F)(F)F)N(C)C(=O)COc1ccccc1 (stereo not drawn) [I-229] | 98% | 100% | 50% |  |  | 90% | 30% | 60% | 100% | 80% | 80% | 10% | 100% | 10% | 100% | 100% | 70% | 50% | 50% | 80% | Growth controlling degree (%) Rice (rice (var. Nihonbare); active ingredient 500 g/ha): 0%; Growth controlling degree (%) Japanese bulrush (japanese bulrush; active ingredient 500 g/ha): 95%; Growth controlling degree (%) Japanese ribbon wapato (japanese ribbon wapato; active ingredient 500 g/ha): 90%; Growth controlling degree (%) Barnyardgrass (barnyardgrass [19]; active ingredient 500 g/ha): 100% |
| CCC(CC)C(c1cnccc1C(F)(F)F)N(C)C(=O)COc1ccccc1 (stereo not drawn) [I-263] |  |  |  | 0% | 90% | 95% | 60% | 80% |  | 70% | 90% |  |  | 40% |  |  | 70% | 80% |  | 80% | Growth controlling degree (%) Redroot pigweed (redroot pigweed [1]; [20]): 70%; Growth controlling degree (%) Barnyardgrass (barnyardgrass [2]; [20]): 10%; Growth controlling degree (%) Rice (rice [3]; [20]): 40%; Growth controlling degree (%) Crabgrass (crabgrass [7]; [20]): 95%; Growth controlling degree (%) Soyabean (soybean [10]; [20]): 10%; Growth controlling degree (%) Prickly sida (prickly sida [11]; [20]): 70%; Growth controlling degree (%) Green foxtail (green foxtail [13]; [20]): 60%; Growth controlling degree (%) Corn (corn [14]; [20]): 20%; Growth controlling degree (%) Japanese ribbon wapato (japanese ribbon wapato; active ingredient 250 g/ha): 20%; Growth controlling degree (%) Velvetleaf (velvetleaf [17]; [20]): 40%; Growth controlling degree (%) Barnyardgrass (barnyardgrass [19]; active ingredient 250 g/ha): 5% |
| CC(C)C(c1cnccc1C(F)(F)F)N(C)C(=O)C=Cc1ccc(Br)cc1 (stereo not drawn) [I-178] | 40% | 90% | 40% |  |  | 95% | 40% | 50% | 98% | 70% | 95% | 0% | 30% | 10% | 100% | 10% | 60% | 60% | 40% | 60% | Growth controlling degree (%) Rice (rice (var. Nihonbare); active ingredient 500 g/ha): 0%; Growth controlling degree (%) Japanese bulrush (japanese bulrush; active ingredient 500 g/ha): 95%; Growth controlling degree (%) Japanese ribbon wapato (japanese ribbon wapato; active ingredient 500 g/ha): 40%; Growth controlling degree (%) Barnyardgrass (barnyardgrass [19]; active ingredient 500 g/ha): 98% |
| CC(C)C(c1cnccc1Cl)N(C)C(=O)Cc1ccccc1F (stereo not drawn) [I-66] | 60% | 80% | 40% |  |  | 70% | 10% | 20% | 90% | 50% | 60% | 50% | 30% | 40% | 50% | 10% | 70% | 50% | 40% | 70% | Growth controlling degree (%) Rice (rice (var. Nihonbare); active ingredient 125 g/ha): 10%; Growth controlling degree (%) Japanese bulrush (japanese bulrush; active ingredient 125 g/ha): 90%; Growth controlling degree (%) Japanese ribbon wapato (japanese ribbon wapato; active ingredient 125 g/ha): 10%; Growth controlling degree (%) Barnyardgrass (barnyardgrass [19]; active ingredient 125 g/ha): 98% |
